Results reported in patent publication US12421249B2, “Inhibitors of APOL1 and methods of using same” (Vertex Pharmaceuticals Incorporated, priority 2020, dated 2025).
Where two headings read alike, the source gives them in different places.

Columns and labels:
APOL1 G1 = target: T1, APOL1 G1 (Homo sapiens, UniProt O14791, I384M/S342G); test: Trypanosoma brucei brucei Lysis Assay Using APOL1 Recombinant Protein (AlamarBlue viability readout); type: cell-based; settings: for Emax: read-out: Trypanosome Assay Max Activity (%)
T1 sequence (O14791 28-398 S342G/I384M): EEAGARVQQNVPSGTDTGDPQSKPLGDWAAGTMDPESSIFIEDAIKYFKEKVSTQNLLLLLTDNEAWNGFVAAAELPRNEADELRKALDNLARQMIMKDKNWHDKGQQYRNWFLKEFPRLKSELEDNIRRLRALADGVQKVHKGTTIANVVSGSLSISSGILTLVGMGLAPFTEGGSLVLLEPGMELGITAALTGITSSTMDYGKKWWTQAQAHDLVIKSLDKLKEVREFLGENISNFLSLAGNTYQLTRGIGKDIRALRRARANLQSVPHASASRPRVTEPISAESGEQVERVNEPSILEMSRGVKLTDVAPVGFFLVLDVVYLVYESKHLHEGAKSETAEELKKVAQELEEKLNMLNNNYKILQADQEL
Procedure, shortened: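 Percent viability comes from AlamarBlue (resazurin→resorufin) fluorescence interpolated on a standard curve of known parasite numbers, with no-APOL1 wells as 100%. Parasites (Lister 427 bloodstream form, 120,000/well, serum-free assay medium) meet 0.05 μg/mL APOL1 (~EC90). Compounds span a 10-point series, 0.1% DMSO final.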

APOL1 = target: T2, APOL1 (Homo sapiens, UniProt O14791); test: Multi-Tox Assay (MultiTox-Fluor Multiplex Cytotoxicity Assay in tet-inducible APOL1 T-REx-HEK293 cells; Table 46 does not say which APOL1 variant G0/G1/G2); type: cell-based; settings: APOL1 variant not given; for IC50: IP50 = IC50 for cell proliferation
T2 sequence (O14791 1-398 S342G/I384M): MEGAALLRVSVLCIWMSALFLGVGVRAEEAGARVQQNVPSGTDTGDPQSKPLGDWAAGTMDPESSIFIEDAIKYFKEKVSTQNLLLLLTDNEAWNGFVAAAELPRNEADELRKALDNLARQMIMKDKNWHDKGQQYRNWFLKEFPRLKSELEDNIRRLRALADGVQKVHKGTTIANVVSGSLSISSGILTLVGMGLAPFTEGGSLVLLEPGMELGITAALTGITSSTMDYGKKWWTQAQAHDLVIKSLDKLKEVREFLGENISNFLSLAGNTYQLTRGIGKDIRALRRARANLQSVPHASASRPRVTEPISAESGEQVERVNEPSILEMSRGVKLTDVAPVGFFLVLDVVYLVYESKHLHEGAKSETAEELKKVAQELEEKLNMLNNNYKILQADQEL

[1] = Trypanosome Assay, IP50 = IC50 for cell proliferation, read-out: Trypanosome Assay IP50

## C[C@H]1CC2(C[C@@H](c3cn(C)nn3)N1)OCC(C)(C)c1sc(Cl)cc12 (stereo in doubt) [Compound 15]
APOL1 G1; [1]
  IC50: < 50 nM
APOL1 G1; Trypanosome Assay
  Emax: 101%
APOL1
  Multi-Tox Assay Max Activity (%): 99.0%
  IC50: < 50 nM

## C[C@H]1CC2(C[C@@H](c3cn(C)nn3)N1)OCC(C)(C)c1sc(C(F)(F)F)cc12 (stereo in doubt) [Compound 16]
APOL1 G1; [1]
  IC50: 50 to 500 nM
APOL1 G1; Trypanosome Assay
  Emax: 99.5%
APOL1
  Multi-Tox Assay Max Activity (%): 100.0%
  IC50: < 50 nM

## C[C@H]1C[C@@]2(C[C@@H](c3ccc(O)c(F)c3)N1)OCCc1cc(Cl)sc12 (stereo in doubt) [Compound 51]
APOL1 G1; [1]
  IC50: < 50 nM
APOL1 G1; Trypanosome Assay
  Emax: 102%
APOL1
  Multi-Tox Assay Max Activity (%): 99.7%
  IC50: < 50 nM

## C[C@H]1C[C@@]2(C[C@@H](c3cnc(-c4cnn(C)c4)nc3)N1)OCCc1cc(Cl)sc12 (stereo in doubt) [Compound 61]
APOL1 G1; [1]
  IC50: < 50 nM
APOL1 G1; Trypanosome Assay
  Emax: 105%
APOL1
  IC50: < 50 nM

## C[C@H]1C[C@@]2(C[C@@H](c3ccc(O)nn3)N1)OCCc1cc(Cl)sc12 (stereo in doubt) [Compound 86]
APOL1 G1; [1]
  IC50: < 50 nM
APOL1 G1; Trypanosome Assay
  Emax: 112%
APOL1
  IC50: < 50 nM

## CCc1cc([C@@H]2C[C@]3(C[C@H](C)N2)OCCc2cc(Cl)sc23)on1 (stereo in doubt) [Compound 91]
APOL1 G1; [1]
  IC50: < 50 nM
APOL1 G1; Trypanosome Assay
  Emax: 110%
APOL1
  IC50: < 50 nM

## C[C@H]1C[C@@]2(C[C@@H](c3cnn(C4CCS(=O)(=O)C4)c3)N1)OCCc1cc(Cl)sc12 (stereo in doubt) [Compound 97]
APOL1 G1; [1]
  IC50: < 50 nM
APOL1 G1; Trypanosome Assay
  Emax: 104%
APOL1
  IC50: < 50 nM

## C[C@H]1C[C@@]2(C[C@@H](c3cc(C4CCOCC4)[nH]n3)N1)OCCc1cc(Cl)sc12 (stereo in doubt) [Compound 114]
APOL1 G1; [1]
  IC50: 50 to 500 nM
APOL1 G1; Trypanosome Assay
  Emax: 95%
APOL1
  Multi-Tox Assay Max Activity (%): 99.7%
  IC50: < 50 nM

## C[C@H]1C[C@@]2(C[C@@H](c3cc(C(F)(F)F)[nH]n3)N1)OCCc1cc(Cl)sc12 (stereo in doubt) [Compound 119]
APOL1 G1; [1]
  IC50: 50 to 500 nM
APOL1 G1; Trypanosome Assay
  Emax: 97.5%
APOL1
  Multi-Tox Assay Max Activity (%): 99.7%
  IC50: < 50 nM

## C[C@H]1C[C@@]2(C[C@@H](c3cccn4ccnc34)N1)OCCc1cc(Cl)sc12 (stereo in doubt) [Compound 143]
APOL1 G1; [1]
  IC50: 50 to 500 nM
APOL1 G1; Trypanosome Assay
  Emax: 101%
APOL1
  Multi-Tox Assay Max Activity (%): 98.0%
  IC50: 50 to 500 nM

## C[C@H]1CC2(CC(c3cn(C)cn3)N1)OCC(O)c1cc(Cl)sc12 (stereo in doubt) [Compound 178]
APOL1 G1; [1]
  IC50: < 50 nM
APOL1 G1; Trypanosome Assay
  Emax: 101%
APOL1
  IC50: < 50 nM

## C[C@H]1CC2(CC(c3cn(C)cn3)N1)OCC(O)c1cc(Cl)sc12 (stereo in doubt) [Compound 179]
APOL1 G1; Trypanosome Assay
  Trypanosome Assay Max Activity (%): 119.5%
APOL1 G1; [1]
  IC50: < 50 nM
APOL1
  IC90: < 50 nM
  Multi-Tox Assay Max Activity (%): 99.0%
  IC50: < 50 nM

## C[C@H]1C[C@@]2(C[C@@H](c3cn(C)nn3)N1)OCCc1cc(Cl)sc12 [Compound 1, (2′S,6′S,7S)-2-chloro-2′-methyl-6′-(1-methyltriazol-4-yl)spiro[4,5-dihydrothieno[2,3-c]pyran-7,4′-piperidine]]
APOL1 G1; [1]
  IC50: < 50 nM
APOL1 G1; Trypanosome Assay
  Emax: 124%
APOL1
  IC50: < 50 nM

## C[C@H]1C[C@@]2(C[C@@H](c3cn(C)nn3)N1)OCCc1cc(C(F)(F)F)sc12 [Compound 2, (2′S,6′S,7S)-2′-methyl-6′-(1-methyltriazol-4-yl)-2-(trifluoromethyl)spiro[4,5-dihydrothieno[2,3-c]pyran-7,4′-piperidine]]
APOL1 G1; [1]
  IC50: < 50 nM
APOL1 G1; Trypanosome Assay
  Emax: 117%
APOL1
  IC50: < 50 nM

## C[C@H]1C[C@@]2(C[C@@H](c3cn(C)nn3)N1)OCCc1sc(C(F)(F)F)cc12 [Compound 8, (2′S,4S,6′S)-2′-methyl-6′-(1-methyltriazol-4-yl)-2-(trifluoromethyl)spiro[6,7-dihydrothieno[3,2-c]pyran-4,4′-piperidine]]
APOL1 G1; [1]
  IC50: 50 to 500 nM
APOL1 G1; Trypanosome Assay
  Emax: 106%
APOL1
  Multi-Tox Assay Max Activity (%): 100.0%
  IC50: < 50 nM

## CC1CC2(CC(c3cnn(CCS(C)(=O)=O)c3)N1)OCCc1sc(C(F)(F)F)cc12 (centres unmarked) [Compound 9]
APOL1 G1; [1]
  IC50: 50 to 500 nM
APOL1 G1; Trypanosome Assay
  Emax: 108%
APOL1
  Multi-Tox Assay Max Activity (%): 100.0%
  IC50: < 50 nM

## C[C@H]1C[C@@]2(C[C@@H](c3cn(C)nn3)N1)OCCc1c2sc(C(F)(F)F)c1CO [Compound 17, [(2′S,6′S, 7S)-2′-methyl-6′-(1-methyltriazol-4-yl)-2-(trifluoromethyl)spiro[4,5-dihydrothieno[2,3-c]pyran-7,4′-piperidine]-3-yl]methanol]
APOL1 G1; [1]
  IC50: 50 to 500 nM
APOL1 G1; Trypanosome Assay
  Emax: 102%
APOL1
  IC50: < 50 nM

## C[C@H]1C[C@@]2(C[C@@H](c3cnn(CC(=O)N(C)C)c3)N1)OCCc1cc(Cl)sc12 [Compound 18, 2-[4-[(2S,6S)-2-chloro-6′-methyl-spiro[4,5-dihydrothieno[2,3-c]pyran-7,4′-piperidine]-2′-yl]pyrazol-1-yl]-N,N-dimethyl-acetamide]
APOL1 G1; [1]
  IC50: 50 to 500 nM
APOL1 G1; Trypanosome Assay
  Emax: 103%
APOL1
  IC50: < 50 nM

## C[C@H]1C[C@@]2(C[C@@H](c3cnn(C)c3)N1)OCCc1cc(Cl)sc12 [Compound 19, (2S)-2-chloro-2′-methyl-6′-(1-methylpyrazol-4-yl)spiro[4,5-dihydrothieno[2,3-c]pyran-7,4′-piperidine]]
APOL1 G1; [1]
  IC50: < 50 nM
APOL1 G1; Trypanosome Assay
  Emax: 107%
APOL1
  IC50: < 50 nM

## CC1CC2(CC(c3ccc4c(c3)oc(=O)n4C)N1)OCCc1cc(Cl)sc12 (centres unmarked) [Compound 23]
APOL1 G1; [1]
  IC50: < 50 nM
APOL1 G1; Trypanosome Assay
  Emax: 116%
APOL1
  IC90: < 50 nM
  Multi-Tox Assay Max Activity (%): 99.7%
  IC50: < 50 nM

## CC1CC2(CC(c3cccc(C#N)c3)N1)OCCc1cc(Cl)sc12 (centres unmarked) [Compound 24]
APOL1 G1; [1]
  IC50: < 50 nM
APOL1 G1; Trypanosome Assay
  Emax: 107%
APOL1
  Multi-Tox Assay Max Activity (%): 100.0%
  IC50: < 50 nM

## CNC(=O)c1cccc(C2CC3(CC(C)N2)OCCc2cc(Cl)sc23)c1 (centres unmarked) [Compound 27]
APOL1 G1; [1]
  IC50: < 50 nM
APOL1 G1; Trypanosome Assay
  Emax: 112%
APOL1
  IC50: < 50 nM

## CC1CC2(CC(c3ccncc3)N1)OCCc1cc(Cl)sc12 (centres unmarked) [Compound 30]
APOL1 G1
  IC50: < 50 nM
  Emax: 124%
APOL1
  Multi-Tox Assay Max Activity (%): 99.0%
  IC50: < 50 nM

## CC1CC2(CC(c3cn[nH]c3)N1)OCCc1cc(Cl)sc12 (centres unmarked) [Compound 31]
APOL1 G1; [1]
  IC50: < 50 nM
APOL1 G1; Trypanosome Assay
  Emax: 123%
APOL1
  IC90: < 50 nM
  Multi-Tox Assay Max Activity (%): 100.0%
  IC50: < 50 nM

## CC1CC2(CC(c3cc(F)cc(C#N)c3)N1)OCCc1cc(Cl)sc12 (centres unmarked) [Compound 33]
APOL1 G1; [1]
  IC50: < 50 nM
APOL1 G1; Trypanosome Assay
  Emax: 111%
APOL1
  IC50: < 50 nM

## COc1ccc(C2CC3(CC(C)N2)OCCc2cc(Cl)sc23)nc1 (centres unmarked) [Compound 34]
APOL1 G1; [1]
  IC50: < 50 nM
APOL1 G1; Trypanosome Assay
  Emax: 115%
APOL1
  Multi-Tox Assay Max Activity (%): 99.0%
  IC50: < 50 nM

## CC1CC2(CC(c3ccc4[nH]ncc4c3)N1)OCCc1cc(Cl)sc12 (centres unmarked) [Compound 35]
APOL1 G1; [1]
  IC50: < 50 nM
APOL1 G1; Trypanosome Assay
  Emax: 111%
APOL1
  IC50: < 50 nM

## CC(=O)Nc1ccc(C2CC3(CC(C)N2)OCCc2cc(Cl)sc23)cn1 (centres unmarked) [Compound 37]
APOL1 G1; [1]
  IC50: < 50 nM
APOL1 G1; Trypanosome Assay
  Emax: 114%
APOL1
  IC50: < 50 nM

## CC1CC2(CC(c3cnn(C)n3)N1)OCCc1cc(Cl)sc12 (centres unmarked) [Compound 38]
APOL1 G1; [1]
  IC50: < 50 nM
APOL1 G1; Trypanosome Assay
  Emax: 112%
APOL1
  IC50: < 50 nM
